Results as given in article PMC10687260, “1,3-Diphenylureido hydroxamate as a promising scaffold for generation of potent antimalarial histone deacetylase inhibitors” (Scientific Reports, 2023).

Assays:
[1] = system: acetylated histone H4; assay: Western blot of acetylated histone H4 in infected erythrocytes; format: cell-based, Plasmodium falciparum; details: 10 × IC50 for 4 h, trophozoites, vs DMSO
Description: (§1) Figure 5 Hydroxamic acid derivatives as potent in vitro PfHDAC1 inhibitors. […]. Enzyme activity was calculated by normalizing the data against the DMSO treated samples and discounting the background. Data are presented as shown above, with mean ± S.D. (n = 2). […]. Comparison of group/concentration against the DMSO control is represented as † for P < 0.0001. […]. Numbers on side of the bands represent the predicted mass (kDa) for each protein. (C,D) Band quantification of histone H3 (C) and H4 (D), respectively, normalizing their acetylated detection against their unmodified version. Differences to this value were analyzed by one way ANOVA using the Dunnett’s post correction, comparing each group against the DMSO control, as rank tests where P values are explicitly depicted.
(§2) Western Blot analysis. […]. Proteins were transferred to PVDF membranes, 5% non-fat dry milk in TBS with Tween 20 (0.1%) was used as blocking agent for 1 h at room temperature. After, incubated with the antibodies overnight at 4 °C (Acetyl Histone H3 Lys9 C5B11 Cell Signaling, Acetyl Histone H4 Lys16 E2B8W Cell Signaling, Histone H3 96C10 Cell Signaling and Histone H4 D2X4V Cell Signaling). For the analysis of protein acetylation levels, the membranes were stripped and re-probed with the corresponding anti-total protein. Mouse monoclonal anti-α-Tubulin (B512 Sigma-Aldrich) was used as loading control. Detection was performed by enhanced chemiluminescence using horseradish peroxidase-conjugated secondary antibodies (Vector Laboratories, Burlingame, CA, USA) and SuperSignal TM West Pico PLUS Chemiluminescent substrate kit (Thermo Scientific). Images were acquired using ChemiDoc TM Imaging System (BioRad Laboratories, CA, USA). Quantitative densitometry was carried out using ImageLab software (Bio-Rad Laboratories, CA, USA). The volume density of the chemiluminescent bands was calculated as an integrated optical density × mm^2 after background correction from each independent experiment (N = 3).

[2] = system: acetylated histone H3; assay: Western blot of acetylated histone H3 in infected erythrocytes; format: cell-based, Plasmodium falciparum; details: 10 × IC50 for 4 h, trophozoites, vs DMSO
Description: as §1, §2

[3] = system: P. falciparum Dd2; assay: Antiplasmodial SYBR Green I proliferation assay, P. falciparum Dd2; format: cell-based; details: Plasmodium falciparum, DD2; multidrug/CQ-resistant strain; read-out: IC50 P. falciparum Dd2
Description: Antiplasmodial activity against P. falciparum 3D7 (A, C and E) and P. falciparum Dd2 (B, D, F). […] Curves were plotted using non-linear regression based on means from three independent experiments measured in triplicate. Error bars indicate standard deviation, whose values are provided in the respective table.
Plasmodium falciparum culture and antiplasmodial activity. […] Development, parasitaemia, and morphology of parasites were monitored by light microscopy of thin blood smears stained according to the Romanowsky method (Panótico Rápido staining kit; Laborclin, Pinhais, Paraná, Brazil). […] Fresh 0^+ blood was generously provided by “Hospital Novo Atibaia” (Atibaia, SP, Brazil), and approved by the ethics committee at ICB-USP. The antiplasmodial effect of all compounds was validated against P. falciparum 3D7 strain conducting SYBR Green I (Invitrogen) drug assays as previously reported[30],[46] as a modification of the original procedure. […] Parasite proliferation was measured by the DNA load via fluorescence, using 100 μL of a lysis buffer with SYBR Green I (0.02% v/v) and incubated for 1 h at room temperature in the dark. […] Focal and gain adjustment was performed using the non-treated controls (highest expected fluorescence signal). Data was acquired via the CLARIOstar (V5.20) and MARS software, manually scaled to 0–100%, and plotted using GraphPad Prism (v9.5.2 for Windows, GraphPad Software, La Jolla California USA, www.graphpad.com). Non-treated parasites, the highest solvent concentration on parasites, CQ on parasites, and the highest drug concentration in the medium were used as controls for maximal growth, solvent control, positive biological control, and native drug fluorescence, respectively.

[4] = system: Jurkat; parameters: method as in PMID 33668008; details: Fig. 1A; cited from earlier work
[5] = system: Namalwa; parameters: method as in PMID 33668008; details: Fig. 1A; cited from earlier work

For `COc1ccc(NC(=O)Nc2ccc(/C=C/C(=O)NO)cc2)cc1` [Compound 6c, (E)-N-hydroxi-3-(4-(3-(4-methoxyphenyl)ureido)phenyl)acrylamide], the “Acetylated-H4 level (normalised to unmodified H4)” value [1] was “significant elevation”.
With `COc1ccc(NC(=O)Nc2ccc(C(=O)NO)cc2)cc1` [Compound 8c, N-hydroxy-4-(3–4(-methoxyphenyl)ureido)benzamide] the “Acetylated-H3 level (normalised to unmodified H3)” value [2] was “two-fold increase”, the “Acetylated-H4 level (normalised to unmodified H4)” value [1] was “significant elevation” and the IC50 [3] was 800 nM.
In the case of `O=C(Nc1ccccc1)Nc1ccc(C(=O)NO)cc1` [Compound 8a, N-hydroxy-4-(3-phenylureido)bezamide], the IC50 [4] is given as 2500 nM and the IC50 [5] is given as 530 nM.
For `COc1ccc(NC(=O)Nc2ccc(CCC(=O)NO)cc2)cc1` [Compound 7c, N-hydroxy-3-(4-(3-(4-methoxyphenyl)ureido)phenyl)propanamide], the “Acetylated-H3 level (normalised to unmodified H3)” value [2] was “two-fold increase”.
